Here are results for 8 compounds from US4933369A, “Dimethyl tyrosyl amide sulfides, sulfoxides and sulfones” (G. D. Searle & Co., priority 1988, dated 1990).

For orientation: pIC50 means the IC50 on a negative log10 scale, so that one unit is a factor of ten.

In one assay the test system is mouse. Description: Writhing assay (phenylbenzoquinone-induced writhing, analgesia). It is filed as in vivo, Male Charles River albino mice (CD-1/HAM/lLR). Details: key: +: The test compound was rated active if the number of writhes in the drug treatment group was significantly less than the number of writhes in the saline treatment group as determined by a one-way analysis of variance. The following applies: 30 min before phenylbenzoquinone, initial test dose 2 mg/kg. How it is done:
Male Charles River albino mice (CD-1/HAM/lLR) weighing between 20 and 30 grams were used. Thirty minutes after subcutaneous or intragastric administration of the test compound (0.1 ml/10 gm body weight), 0.025% (w/x) phenylbenzoquinone was injected intraperitoneally (0.1 ml/10 gm body weight). Five minutes later, each mouse was placed in a large glass beaker and the number of writhes that occurred in the subsequent ten minutes is counted. A writhe consisted of dorsoflexion of the back, extension of the hind limbs and strong contraction of the abdominal musculature. The test compound was considered to have produced analgesia in a mouse if the number of writhes elicited by phenylbenzoguinone was equal to or less than 1/2 the median number of writhes recorded for the saline-treated group that day. The results were expressed as the number of mice (out of a possible 10) in which the test compound produced analgesia. […] If the initial test dose of 2 mg/kg inhibited writhing in greater than six out of ten mice, the effect of additional doses was evaluated and an ED50 value was calculated using a maximum likelihood function.
For orientation: In writhing tests, fewer writhes than in controls are read as antinociception.

For assay [1], the target named is T1, opiate receptors isolated from rat brain (Rattus norvegicus, UniProt P33535).
T1 construct: A purified homogenate of receptor membranes was prepared from the brains; from tissue; host or cells: brain membranes of male Crl:CD(SD)BR rats (animals from Charles River Laboratories)
T1 sequence (P33535 whole entry): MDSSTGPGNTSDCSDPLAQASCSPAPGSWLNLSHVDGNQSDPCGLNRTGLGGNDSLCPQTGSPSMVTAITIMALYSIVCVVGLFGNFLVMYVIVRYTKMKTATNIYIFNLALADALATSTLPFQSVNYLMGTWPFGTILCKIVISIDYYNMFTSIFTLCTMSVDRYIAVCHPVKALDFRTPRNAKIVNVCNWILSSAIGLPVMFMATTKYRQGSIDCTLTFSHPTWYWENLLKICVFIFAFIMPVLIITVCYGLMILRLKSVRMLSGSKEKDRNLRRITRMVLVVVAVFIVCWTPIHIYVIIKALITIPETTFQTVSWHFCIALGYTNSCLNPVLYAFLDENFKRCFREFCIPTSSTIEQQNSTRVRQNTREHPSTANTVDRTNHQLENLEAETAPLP
Kind of assay: Opiate binding assay with (D)Ala^2Glyol^5 Enkephlin as radioactive ligand. As for the experimental part: Male rats (Crl:CD)(SD)(BR) obtained from Charles River Laboratories (Portage, Mich.) were sacrificed by cervical dislocation. A purified homogenate of receptor membranes was prepared from the brains according to the method described by Chang and Cuatrecasas. Multiple Opiate Receptors: Enkephalins and Morphine Bind to Receptors of Different Specificity. J. Biol. Chem. 254, 2610-2618 (1979). The brains were homogenized in ten volumes of 0.32 M sucrose and centrifuged twice at 6,000×g for fifteen minutes. Following centrifugation of the supernatants at 40,000×g for thirty minutes, the pellets were resuspended in 5 mM tris HCl, and centrifuged at 6,000×g. The supernatant was centrifuged at 40,000×g. The resuspension in 5 mM tris and centrifugation was repeated twice. […]
The binding of the test compounds to the receptor membrane preparation was measured using a modification of the method of Pert and Snyder (C. B. Pert and S. H. Snyder. Property of Opiate-Receptor Binding in Rat Brain. Proc. Natl. Acad. Sci. 70, 2243-2247, 1973). […]
Samples were incubated at 25° C. for sixty minutes, filtered over Whatman GF/C glass fiber filters and rinsed twice with 2.4 ml washes of ice-cold buffer. […] After drying, 10 ml of PCS was added to the vial and radioactivity determined using a Tracore Analytic Mark III liquid scintillation counter with a counting efficiency of 48%. […]

For assay [2], the target named is opiate receptors isolated from rat brain. Kind of assay: Opiate binding assay (displacement of 3H-Naloxone). The conditions noted are these: 3H-Naloxone 1NM, rat brain membranes, pH 7.4, 25° C., 60 min. As for the experimental part:
The test compounds were evaluated for their ability to displace the binding of ^3 H-Naloxone to opiate receptors isolated from rat brain. Male rats (Crl:CD)(SD)(BR) obtained from Charles River Laboratories (Portage, Mich.) were sacrificed by cervical dislocation. A purified homogenate of receptor membranes was prepared from the brains according to the method described by Chang and Cuatrecasas. Multiple Opiate Receptors: Enkephalins and Morphine Bind to Receptors of Different Specificity. J. Biol. Chem. 254, 2610-2618 (1979). The brains were homogenized in ten volumes of 0.32 M sucrose and centrifuged twice at 6,000×g for fifteen minutes. Following centrifugation of the supernatants at 40,000×g for thirty minutes, the pellets were resuspended in 5 mM tris HCl, and centrifuged at 6,000×g. The supernatant was centrifuged at 40,000×g. The resuspension in 5 mM tris and centrifugation was repeated twice. The final pellet was resuspended in two volumes of 50 mM tris HCl, (pH 7.4). The homogenate was assayed for protein content according to the method of Itzhaki and Gill (R. E. Itzhaki and D. N. Gill. A Micro-Biuret Method for Estimating proteins Anal. Biochem. 9, 401-410, 1964).
The binding of the test compounds to the receptor membrane preparation was measured using a modification of the method of Pert and Snyder (C. B. Pert and S. H. Snyder. Property of Opiate-Receptor Binding in Rat Brain. Proc. Natl. Acad. Sci. 70, 2243-2247, 1973). The receptor assay was run using a final concentration of 1NM^3 H-Naloxone and 0.5 mg/ml of homogenate protein. Levorphanol (1×10^-5 M) was used as the displacer for non-specific binding. The final concentration of the test compounds was 10^-5 M) The assay was run in 0.05 M tris HCl (pH 7.4). Total assayed volume was 1.0 ml.
Samples were incubated at 25° C. for sixty minutes, filtered over Whatman GF/C glass fiber filters and rinsed twice with 2.4 ml washes of ice-cold buffer. The filters were air dried at 50° C. for thirty minutes. After drying, 10 ml of PCS was added to the vial and radioactivity determined using a Tracore Analytic Mark III liquid scintillation counter with a counting efficiency of 48%.
The IC50 values, the concentration of the test compounds which inhibited ^3 H-Naloxone specific binding to the opiate receptor by 50%, were obtained from log-logit plots of concentration-response curves.
Background: In a radioligand displacement assay an active substance lowers the binding of a labelled ligand.

pIC50: −log10 of the molar value.

`Cc1cc(O)cc(C)c1CC(N)C(=O)NCCCSCCc1ccccc1` (racemic) [Example 5, (±) α-2,6-dimethyl-N-[3-[(2-phenylethyl)thio]propyl]benzenepropanamide]: the “ACTIVE (writhing assay, subcutaneous dosing)” value (shortened to “ACTIVE”) in the assay with mouse is listed as “+”. In addition, the pIC50 in assay [1] was 8.44.
Turning to `Cc1cc(O)cc(C)c1CC(N)C(=O)NCCCSCc1ccccc1` (racemic) [Example 7, (±)α-amino-4-hydroxy-2,6-dimethyl-N-[3-[(phenylmethyl)thio]propyl]benzenepropanamide], in the assay on mouse, the “ACTIVE” value is on record as “+”. The same compound showed a pIC50 in assay [2] of 7.68.
`Cc1cc(O)cc(C)c1CC(N)C(=O)NCCCS(=O)(=O)CCc1ccccc1` (racemic) [Example 6, (±)α-amino-4-hydroxy-2,6-dimethyl-N-[3-[(2-phenylethyl)sulfonyl]-propyl]benzenepropanamide] gave a negative logarithm of the IC50 (pIC50) in assay [2] of 9.05.
As to `Cc1cc(O)cc(C)c1CC(N)C(=O)NCC[S+]([O-])CCCc1ccccc1` (racemic) [Example 4, (±)α-amino-4-hydroxy-2,6-dimethyl-N-[2-[(3-phenylpropyl)sulfinyl]ethyl]benzenepropanamide], the “ACTIVE” value with mouse is recorded as “+”. Besides, the pIC50 in assay [2] is 8.55.
`Cc1cc(O)cc(C)c1CC(N)C(=O)NCCCCSCc1ccccc1` (racemic) [Example 8, (±)α-amino-4-hydroxy-2,6-dimethyl-N-[4-(phenylmethyl)thio]butyl]benzenepropanamide]: the “ACTIVE” value in the assay on mouse is on record as “+”.
In assay [2], `Cc1cc(O)cc(C)c1CC(N)C(=O)NCCSCCCc1ccccc1` (racemic) [Example 2, (±)α-amino-4-hydroxy-2,6-dimethyl-N-[2-[(3-phenylpropyl)thio]ethyl]benzenepropanamide] had a pIC50 of 8.66.
For the compound `Cc1cc(O)cc(C)c1CC(N)C(=O)NCCS(=O)(=O)CCCc1ccccc1` (racemic) [Example 3, (±)α-amino-4-hydroxy-2,6-dimethyl-N-[2-[(3-phenylpropyl)sulfonyl]ethyl]benzenepropanamide], the “ACTIVE” value in the assay with mouse is recorded as “+”. Moreover, the pIC50 in assay [2] was 9.10.
For the compound `Cc1cc(O)cc(C)c1C[C@H](N)C(=O)NCCCSc1ccccc1` [Example 9, (L)α-amino-4-hydroxy-2,6-dimethyl-N-[3-(phenylthio)propyl]benzenepropanamide], in assay [1], the pIC50 was 7.68.
